Measurements published in patent publication US20190119284A1, “ErbB Inhibitors and Uses Thereof” (The Regents of the University of California, priority 2016, published 2019).

Tests used:
Type in all cases: biochemical
Conditions in all cases: for inhibition at 1 µM: compound at 1 μM
SRC = SRC (Homo sapiens, UniProt P12931); assay: Nanosyn in vitro kinase profiling: SRC
Description: (§1) This was confirmed by in vitro profiling against a panel of kinases, with compound 2 only showing potent inhibition of EGFR and Ab1 (Table 2).
(§2) In vitro Kinome Screen. In vitro profiling of compound 2 at 100 nM was conducted by Nanosyn.

FLT-3 = biological target: T1, FLT-3 (Homo sapiens, UniProt P36888); assay: Nanosyn in vitro kinase profiling: FLT-3
T1 sequence (P36888 27-993): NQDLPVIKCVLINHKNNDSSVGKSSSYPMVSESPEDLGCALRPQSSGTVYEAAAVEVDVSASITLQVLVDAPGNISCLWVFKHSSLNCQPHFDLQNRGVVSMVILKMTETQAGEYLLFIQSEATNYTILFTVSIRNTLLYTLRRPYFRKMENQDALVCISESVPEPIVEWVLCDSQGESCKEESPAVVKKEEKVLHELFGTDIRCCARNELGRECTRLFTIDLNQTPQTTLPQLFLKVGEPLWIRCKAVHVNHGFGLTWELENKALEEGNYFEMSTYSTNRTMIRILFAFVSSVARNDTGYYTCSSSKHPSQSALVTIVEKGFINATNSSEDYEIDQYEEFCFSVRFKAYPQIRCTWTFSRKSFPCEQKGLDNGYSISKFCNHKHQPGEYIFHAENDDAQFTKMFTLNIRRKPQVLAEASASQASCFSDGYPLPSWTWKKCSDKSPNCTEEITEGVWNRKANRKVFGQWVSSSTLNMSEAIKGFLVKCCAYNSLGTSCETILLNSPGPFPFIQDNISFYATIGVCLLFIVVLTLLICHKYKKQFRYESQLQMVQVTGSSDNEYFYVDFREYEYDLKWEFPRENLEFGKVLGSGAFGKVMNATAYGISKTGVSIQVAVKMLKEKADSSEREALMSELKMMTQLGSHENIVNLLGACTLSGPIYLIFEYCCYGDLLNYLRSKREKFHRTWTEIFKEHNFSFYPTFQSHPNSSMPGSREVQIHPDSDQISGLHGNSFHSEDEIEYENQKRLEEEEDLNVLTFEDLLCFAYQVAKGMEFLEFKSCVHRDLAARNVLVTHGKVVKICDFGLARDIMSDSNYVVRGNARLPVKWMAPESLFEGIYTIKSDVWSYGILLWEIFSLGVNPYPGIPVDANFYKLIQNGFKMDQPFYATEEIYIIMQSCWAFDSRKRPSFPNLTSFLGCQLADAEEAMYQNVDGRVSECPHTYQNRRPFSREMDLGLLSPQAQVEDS
Description: as §1, §2

PDK1 = biological target: T2, PDK1 (Homo sapiens, UniProt O15530); assay: Nanosyn in vitro kinase profiling: PDK1
T2 sequence (O15530 1-556): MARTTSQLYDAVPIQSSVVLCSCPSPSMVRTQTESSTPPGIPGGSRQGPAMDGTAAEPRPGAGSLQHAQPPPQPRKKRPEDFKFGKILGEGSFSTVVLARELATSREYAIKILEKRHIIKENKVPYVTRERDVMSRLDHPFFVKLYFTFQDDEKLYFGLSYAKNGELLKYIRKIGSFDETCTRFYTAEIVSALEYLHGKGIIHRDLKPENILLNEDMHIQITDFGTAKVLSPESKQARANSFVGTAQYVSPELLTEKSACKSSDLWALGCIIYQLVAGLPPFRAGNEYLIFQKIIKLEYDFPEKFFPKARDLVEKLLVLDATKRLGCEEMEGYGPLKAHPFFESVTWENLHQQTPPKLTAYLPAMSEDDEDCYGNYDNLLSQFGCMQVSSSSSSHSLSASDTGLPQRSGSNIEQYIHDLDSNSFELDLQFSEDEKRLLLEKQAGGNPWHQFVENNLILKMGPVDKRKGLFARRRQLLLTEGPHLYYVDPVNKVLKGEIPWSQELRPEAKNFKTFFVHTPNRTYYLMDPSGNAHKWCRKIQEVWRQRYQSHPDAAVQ
Description: as §1, §2

PYK2 = PYK2 (Homo sapiens, UniProt Q14289); assay: Nanosyn in vitro kinase profiling: PYK2
Chain of PYK2 (Q14289 whole entry, species assumed): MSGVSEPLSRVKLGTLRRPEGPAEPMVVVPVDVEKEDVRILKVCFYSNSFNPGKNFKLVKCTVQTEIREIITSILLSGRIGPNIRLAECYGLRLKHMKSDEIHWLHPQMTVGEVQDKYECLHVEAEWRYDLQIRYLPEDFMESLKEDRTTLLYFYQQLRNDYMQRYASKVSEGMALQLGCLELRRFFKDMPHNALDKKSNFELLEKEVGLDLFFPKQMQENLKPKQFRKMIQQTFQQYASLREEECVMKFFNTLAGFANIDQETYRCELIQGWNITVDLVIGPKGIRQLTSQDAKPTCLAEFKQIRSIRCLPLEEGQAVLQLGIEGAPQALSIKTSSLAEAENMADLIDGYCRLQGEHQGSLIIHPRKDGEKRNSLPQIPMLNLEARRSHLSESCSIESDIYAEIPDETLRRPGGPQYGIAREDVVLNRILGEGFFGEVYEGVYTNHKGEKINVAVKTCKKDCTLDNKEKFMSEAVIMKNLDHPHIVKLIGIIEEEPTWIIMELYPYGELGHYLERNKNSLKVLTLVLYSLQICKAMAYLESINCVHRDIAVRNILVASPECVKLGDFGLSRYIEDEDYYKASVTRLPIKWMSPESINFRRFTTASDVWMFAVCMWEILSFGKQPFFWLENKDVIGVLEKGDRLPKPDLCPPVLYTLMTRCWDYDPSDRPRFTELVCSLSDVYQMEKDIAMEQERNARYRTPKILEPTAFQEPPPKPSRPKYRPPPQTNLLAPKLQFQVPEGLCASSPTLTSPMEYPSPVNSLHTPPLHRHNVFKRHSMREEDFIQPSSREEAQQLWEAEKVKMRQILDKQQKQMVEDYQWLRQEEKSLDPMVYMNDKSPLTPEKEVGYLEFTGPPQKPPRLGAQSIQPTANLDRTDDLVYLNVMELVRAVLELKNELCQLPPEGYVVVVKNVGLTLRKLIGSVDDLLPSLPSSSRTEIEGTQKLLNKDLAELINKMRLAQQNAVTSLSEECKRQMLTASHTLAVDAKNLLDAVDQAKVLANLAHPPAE
Description: as §1, §2

IKK-BETA = biological target: T3, IKK-BETA (Homo sapiens, UniProt O14920); assay: Nanosyn in vitro kinase profiling: IKK-BETA
T3 sequence (O14920 1-756): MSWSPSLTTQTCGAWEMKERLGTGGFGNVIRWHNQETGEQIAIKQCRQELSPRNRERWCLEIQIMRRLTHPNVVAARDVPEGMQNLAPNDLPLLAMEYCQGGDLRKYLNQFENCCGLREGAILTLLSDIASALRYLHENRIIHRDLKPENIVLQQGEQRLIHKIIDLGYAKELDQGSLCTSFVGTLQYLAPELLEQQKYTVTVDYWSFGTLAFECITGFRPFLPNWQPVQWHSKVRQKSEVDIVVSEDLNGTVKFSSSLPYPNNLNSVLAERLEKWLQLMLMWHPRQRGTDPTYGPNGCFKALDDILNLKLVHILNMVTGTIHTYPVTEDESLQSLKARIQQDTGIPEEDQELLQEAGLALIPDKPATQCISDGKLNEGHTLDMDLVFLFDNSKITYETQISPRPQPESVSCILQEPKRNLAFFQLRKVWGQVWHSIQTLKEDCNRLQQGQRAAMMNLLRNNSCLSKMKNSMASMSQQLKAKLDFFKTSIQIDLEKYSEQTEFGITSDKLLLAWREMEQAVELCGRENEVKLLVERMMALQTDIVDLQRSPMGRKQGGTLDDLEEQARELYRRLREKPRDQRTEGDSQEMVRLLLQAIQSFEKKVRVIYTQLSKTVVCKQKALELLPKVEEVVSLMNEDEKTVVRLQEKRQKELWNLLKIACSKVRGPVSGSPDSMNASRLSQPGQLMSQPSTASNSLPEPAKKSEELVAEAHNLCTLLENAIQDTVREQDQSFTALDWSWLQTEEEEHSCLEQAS
Description: as §1, §2

PKC-ALPHA = PKC-ALPHA (Homo sapiens, UniProt P17252); assay: Nanosyn in vitro kinase profiling: PKC-ALPHA
Description: as §1, §2

ROCK1 = ROCK1 (Homo sapiens, UniProt Q13464); assay: Nanosyn in vitro kinase profiling: ROCK1
Chain of ROCK1 (Q13464 whole entry, species assumed): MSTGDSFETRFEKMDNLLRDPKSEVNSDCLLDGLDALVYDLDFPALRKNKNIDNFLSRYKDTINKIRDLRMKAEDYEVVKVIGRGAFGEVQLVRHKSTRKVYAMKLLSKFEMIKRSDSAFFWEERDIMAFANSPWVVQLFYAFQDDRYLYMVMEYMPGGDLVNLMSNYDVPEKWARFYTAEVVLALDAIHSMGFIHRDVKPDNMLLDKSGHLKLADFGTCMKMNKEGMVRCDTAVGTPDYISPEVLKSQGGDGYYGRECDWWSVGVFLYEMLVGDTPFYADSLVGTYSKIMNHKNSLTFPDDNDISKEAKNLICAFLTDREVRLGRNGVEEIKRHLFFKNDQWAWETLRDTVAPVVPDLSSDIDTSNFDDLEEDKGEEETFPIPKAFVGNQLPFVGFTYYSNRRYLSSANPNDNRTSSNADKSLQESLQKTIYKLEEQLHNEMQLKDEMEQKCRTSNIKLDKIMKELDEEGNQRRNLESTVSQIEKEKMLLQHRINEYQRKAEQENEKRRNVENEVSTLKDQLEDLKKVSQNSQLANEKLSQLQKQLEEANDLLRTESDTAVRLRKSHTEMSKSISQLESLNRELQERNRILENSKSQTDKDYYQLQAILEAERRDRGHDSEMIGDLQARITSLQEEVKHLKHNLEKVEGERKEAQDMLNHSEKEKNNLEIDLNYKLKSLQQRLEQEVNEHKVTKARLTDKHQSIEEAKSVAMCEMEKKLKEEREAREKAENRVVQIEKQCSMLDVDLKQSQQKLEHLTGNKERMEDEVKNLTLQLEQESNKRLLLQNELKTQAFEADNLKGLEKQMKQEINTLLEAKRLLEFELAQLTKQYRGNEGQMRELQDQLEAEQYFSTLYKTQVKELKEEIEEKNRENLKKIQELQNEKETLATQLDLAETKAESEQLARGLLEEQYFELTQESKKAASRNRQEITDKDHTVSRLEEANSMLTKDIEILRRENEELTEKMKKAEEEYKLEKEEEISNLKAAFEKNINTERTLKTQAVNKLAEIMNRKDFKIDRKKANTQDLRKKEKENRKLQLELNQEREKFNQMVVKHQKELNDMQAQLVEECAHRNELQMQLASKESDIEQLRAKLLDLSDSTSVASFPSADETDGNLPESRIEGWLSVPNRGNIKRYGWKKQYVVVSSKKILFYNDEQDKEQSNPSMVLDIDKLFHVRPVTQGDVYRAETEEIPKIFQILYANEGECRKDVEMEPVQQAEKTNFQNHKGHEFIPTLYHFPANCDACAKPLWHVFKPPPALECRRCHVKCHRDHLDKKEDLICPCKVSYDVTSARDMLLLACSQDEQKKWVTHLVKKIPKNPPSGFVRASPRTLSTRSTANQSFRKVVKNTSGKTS
Description: as §1, §2

DAPK1 = DAPK1 (Homo sapiens, UniProt P53355); assay: Nanosyn in vitro kinase profiling: DAPK1
Chain of DAPK1 (P53355 whole entry, species assumed): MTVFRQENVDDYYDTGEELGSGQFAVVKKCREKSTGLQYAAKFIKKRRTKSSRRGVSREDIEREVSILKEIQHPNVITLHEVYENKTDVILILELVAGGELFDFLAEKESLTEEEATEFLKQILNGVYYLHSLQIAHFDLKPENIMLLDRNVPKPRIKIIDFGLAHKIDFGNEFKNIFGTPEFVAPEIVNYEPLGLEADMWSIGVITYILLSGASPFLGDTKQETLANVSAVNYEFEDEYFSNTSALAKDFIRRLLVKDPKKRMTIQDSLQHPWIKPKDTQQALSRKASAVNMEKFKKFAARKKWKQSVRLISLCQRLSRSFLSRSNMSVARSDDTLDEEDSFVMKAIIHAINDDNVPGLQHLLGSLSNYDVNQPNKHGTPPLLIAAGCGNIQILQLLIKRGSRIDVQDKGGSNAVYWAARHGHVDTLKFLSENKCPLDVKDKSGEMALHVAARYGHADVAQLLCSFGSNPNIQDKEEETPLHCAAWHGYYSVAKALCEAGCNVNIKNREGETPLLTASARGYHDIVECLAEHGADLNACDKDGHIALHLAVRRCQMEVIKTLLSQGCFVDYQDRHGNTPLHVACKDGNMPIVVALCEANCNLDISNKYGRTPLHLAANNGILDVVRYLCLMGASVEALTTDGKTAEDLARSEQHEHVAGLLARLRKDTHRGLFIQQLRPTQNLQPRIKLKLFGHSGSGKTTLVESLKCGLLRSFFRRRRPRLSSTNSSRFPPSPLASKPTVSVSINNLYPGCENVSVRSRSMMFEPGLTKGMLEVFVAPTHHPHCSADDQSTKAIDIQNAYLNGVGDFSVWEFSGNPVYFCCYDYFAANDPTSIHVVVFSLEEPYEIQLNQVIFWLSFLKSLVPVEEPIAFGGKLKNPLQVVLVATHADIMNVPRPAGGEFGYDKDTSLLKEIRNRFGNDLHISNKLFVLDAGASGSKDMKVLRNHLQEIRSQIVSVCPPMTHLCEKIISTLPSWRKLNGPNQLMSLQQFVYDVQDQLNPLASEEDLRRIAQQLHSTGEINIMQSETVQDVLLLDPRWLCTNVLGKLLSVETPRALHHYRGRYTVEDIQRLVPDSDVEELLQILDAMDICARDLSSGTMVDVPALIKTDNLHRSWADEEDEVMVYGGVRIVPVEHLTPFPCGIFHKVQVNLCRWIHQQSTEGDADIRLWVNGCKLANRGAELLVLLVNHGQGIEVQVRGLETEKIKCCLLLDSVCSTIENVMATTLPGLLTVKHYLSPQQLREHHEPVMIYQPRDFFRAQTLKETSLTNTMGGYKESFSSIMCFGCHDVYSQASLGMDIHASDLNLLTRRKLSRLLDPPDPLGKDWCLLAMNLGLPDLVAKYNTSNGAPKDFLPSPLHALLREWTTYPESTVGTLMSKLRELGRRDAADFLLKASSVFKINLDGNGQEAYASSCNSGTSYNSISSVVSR
Description: as §1, §2

SYK = SYK (Homo sapiens, UniProt P43405); assay: Nanosyn in vitro kinase profiling: SYK
Description: as §1, §2

Chain of SRC (P12931 whole entry): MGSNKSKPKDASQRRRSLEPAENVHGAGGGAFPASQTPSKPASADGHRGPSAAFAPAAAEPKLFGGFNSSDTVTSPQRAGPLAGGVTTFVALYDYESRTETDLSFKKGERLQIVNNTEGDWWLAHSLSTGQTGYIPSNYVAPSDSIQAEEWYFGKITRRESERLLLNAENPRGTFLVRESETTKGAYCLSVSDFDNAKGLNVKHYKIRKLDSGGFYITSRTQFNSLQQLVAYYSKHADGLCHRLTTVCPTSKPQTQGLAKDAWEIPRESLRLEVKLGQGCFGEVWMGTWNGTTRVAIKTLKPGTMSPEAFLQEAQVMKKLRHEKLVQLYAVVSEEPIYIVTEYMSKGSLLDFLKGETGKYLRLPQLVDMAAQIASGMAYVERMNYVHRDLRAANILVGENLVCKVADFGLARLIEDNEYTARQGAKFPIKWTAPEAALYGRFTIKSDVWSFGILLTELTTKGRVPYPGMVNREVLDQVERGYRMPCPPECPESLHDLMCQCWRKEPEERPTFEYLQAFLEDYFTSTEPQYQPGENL

inhibition at 1 µM (SRC) | inhibition at 1 µM (FLT-3) | inhibition at 1 µM (PDK1) | inhibition at 1 µM (PYK2) | inhibition at 1 µM (IKK-BETA) | inhibition at 1 µM (PKC-ALPHA) | inhibition at 1 µM (ROCK1) | inhibition at 1 µM (DAPK1) | inhibition at 1 µM (SYK) | inhibition at 0.1 µM (SRC; compound at 100 nM) | inhibition at 0.1 µM (FLT-3; compound at 100 nM) | inhibition at 0.1 µM (PDK1; compound at 100 nM) | inhibition at 0.1 µM (PYK2; compound at 100 nM) | inhibition at 0.1 µM (IKK-BETA; compound at 100 nM) | inhibition at 0.1 µM (PKC-ALPHA; compound at 100 nM) | inhibition at 0.1 µM (ROCK1; compound at 100 nM) | inhibition at 0.1 µM (DAPK1; compound at 100 nM) | inhibition at 0.1 µM (SYK; compound at 100 nM) | Structure (SMILES)
95% | 78% | 5% | 41% | 8% | 30% | 16% | -1% | 35% | – | – | – | – | – | – | – | – | – | COc1ccc(-c2ccoc2)cc1Nc1ncnc2[nH]cc(-c3cc[nH]n3)c12 [compound 3, N-(5-(furan-3-yl)-2-methoxyphenyl)-5-(1H-pyrazol-3-yl)-7H-pyrrolo[2,3-d]pyrimidin-4-amine]
88.9% | 89.4% | 18.3% | 20.2% | 2.91% | 5.57% | 1.16% | 1.43% | -6.41% | 63.2% | 60% | 4.58% | 3.81% | 1.92% | 1.24% | 0.155% | -0.52% | -2.12% | COc1ccc(-c2ccco2)cc1Nc1ncnc2[nH]nc(-c3ccco3)c12 [compound 2, 3-(furan-2-yl)-N-(5-(furan-2-yl)-2-methoxyphenyl)-1H-pyrazolo[3,4-d]pyrimidin-4-amine]
